Results published in paper PMC8037161 (International Journal of Molecular Sciences, 2021).
Where two headings read alike, the source gives them in different places.

Tests used:
pBR322 plasmid = details: cited from earlier work
recombinant human DHFR [1] = biological target: T1, recombinant human DHFR (Homo sapiens, UniProt P00374); set-up: method as in PMID 31892256; details: previously synthesized TMP analogs A–F; cited from earlier work
T1 construct: purchased
T1 sequence (P00374 1-187): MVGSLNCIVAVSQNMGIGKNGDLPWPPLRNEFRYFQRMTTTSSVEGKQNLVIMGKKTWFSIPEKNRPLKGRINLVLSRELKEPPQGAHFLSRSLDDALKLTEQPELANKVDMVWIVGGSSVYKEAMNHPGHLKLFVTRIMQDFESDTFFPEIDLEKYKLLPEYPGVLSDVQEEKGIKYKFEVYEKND

poly(dG-dC)2 = test system: poly(dG-dC)2; set-up: method as in earlier work; details: reference values; KEtBr known (ref 25, 47); NT ref 48 (table row: ref 45); cited from earlier work
poly(dA-dT)2 = test system: poly(dA-dT)2; set-up: method as in earlier work; details: reference values; KEtBr known (ref 25, 47); NT ref 48 (table row: ref 45); cited from earlier work
calf thymus DNA = test system: calf thymus DNA; set-up: method as in earlier work; details: reference values; KEtBr known (ref 25, 47); NT ref 48 (table row: ref 45); cited from earlier work
T4 coliphage DNA = test system: T4 coliphage DNA; set-up: method as in earlier work; details: reference values; KEtBr known (ref 25, 47); NT ref 48 (table row: ref 45); cited from earlier work
recombinant human DHFR [2] = biological target: T1, recombinant human DHFR; experiment: Dihydrofolate reductase (DHFR) inhibition assay; assay type: biochemical; details: assay kit

| SMILES | DNA-binding activity expressed as % decrease of fluorescence (pBR322 plasmid; previous study) [%] | IC50 (recombinant human DHFR [1]) [µM] | Kapp poly (dG-dC)2 (poly(dG-dC)2) [M⁻¹] | Kapp Poly (dA-dT)2 (poly(dA-dT)2) [M⁻¹] | Kapp Calf Thymus DNA (calf thymus DNA) [M⁻¹] | Decrease of Fluorescence (DNA-binding effect) (pBR322 plasmid; pBR322 plasmid, same conditions, 48 (table row: ref 45)) [%] | Kapp T4 DNA (T4 coliphage DNA) [M⁻¹] | IC50 (recombinant human DHFR [2]) [µM] |
| --- | --- | --- | --- | --- | --- | --- | --- | --- |
| COc1ccc(CC(=O)Nc2cnc(N)nc2)c(OC)c1OC [B] | 45.18 | 0.99 |  |  |  |  |  |  |
| Cn1cc(NC(=O)c2cc(NC(=O)CN=C(N)N)cn2C)cc1C(=O)NCCC(=N)N [NT, netropsin] |  |  | 250000 | 8.75e+07 | 870000 | 74 | 830000 | 20.56 ± 0.01 |
